Measurements taken from ChEMBL document CHEMBL1201862, “PubChem BioAssay data set” (2004).
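1) Cells in 96-well plates. 2) Compound, 48 h, 5 concentrations. 3) Linear interpolation between surrounding doses. 4) Unreached endpoint = highest concentration. GI50 marks 50% less growth.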 The source made the active and inactive calls. Rule as the data show it: active = GI50 up to about 1.1 µM and inactive = higher.

Key:
Experiment in all cases: NCI tumour cell line growth inhibition, 48 h
786-0 = system: 786-0
A498 = system: A498
A549 = system: A549
ACHN = system: ACHN
CAKI-1 = system: CAKI-1
CCRF-CEM = system: CCRF-CEM
COLO 205 = system: COLO 205
DLD-1 = system: DLD-1
DMS-114 = system: DMS-114
DMS-273 = system: DMS-273
EKVX = system: EKVX
HCC 2998 = system: HCC 2998
HCT-116 = system: HCT-116
HCT-15 = system: HCT-15
HOP-18 = system: HOP-18
HOP-62 = system: HOP-62
HOP-92 = system: HOP-92
HT-29 = system: HT-29
IGROV-1 = system: IGROV-1
K562 = system: K562
KM-20L2 = system: KM-20L2
KM12 = system: KM12
LOX IMVI = system: LOX IMVI
LXFL 529 = system: LXFL 529
M14 = system: M14
M19-MEL = system: M19-MEL
MOLT-4 = system: MOLT-4
Malme-3M = system: Malme-3M
NCI-H23 = system: NCI-H23
NCI-H460 = system: NCI-H460
NCI-H522 = system: NCI-H522
OVCAR-3 = system: OVCAR-3
OVCAR-4 = system: OVCAR-4
OVCAR-5 = system: OVCAR-5
OVCAR-8 = system: OVCAR-8
RPMI-8226 = system: RPMI-8226
RXF 393 = system: RXF 393
RXF 631 = system: RXF 631
SF-268 = system: SF-268
SF-539 = system: SF-539
SK-MEL-28 = system: SK-MEL-28
SK-MEL-2 = system: SK-MEL-2
SK-MEL-5 = system: SK-MEL-5
SK-OV-3 = system: SK-OV-3
SN12C = system: SN12C
SNB-19 = system: SNB-19
SNB-75 = system: SNB-75
SNB-78 = system: SNB-78
SW-620 = system: SW-620
TK-10 = system: TK-10
U-251 = system: U-251
UACC-257 = system: UACC-257
UACC-62 = system: UACC-62
UO-31 = system: UO-31
XF498 = system: XF498
HL-60 = system: HL-60
NCI-H226 = system: NCI-H226
SF-295 = system: SF-295

With O=C(N/C(=C\c1c(O)ccc2ccccc12)c1nc2ccccc2[nH]1)c1ccccc1 the GI50 (786-0) was 39.8 µM (inactive), the GI50 (A498) was 38.2 µM (inactive) and the GI50 (A549) was > 100 µM (inactive). The GI50 (ACHN) was > 100 µM (inactive), the GI50 (CAKI-1) was > 100 µM (inactive) and the GI50 (CCRF-CEM) was > 100 µM (inactive). The GI50 (COLO 205) was > 100 µM (inactive), the GI50 (DLD-1) was > 100 µM (inactive) and the GI50 (DMS-114) was > 100 µM (inactive). The GI50 (DMS-273) was > 100 µM (inactive), the GI50 (EKVX) was > 100 µM (inactive) and the GI50 (HCC 2998) was > 100 µM (inactive). The GI50 (HCT-116) was > 100 µM (inactive), the GI50 (HCT-15) was over 100 µM and the GI50 (HOP-18) was > 100 µM (inactive). For the same molecule, the GI50 (HOP-62) was 25.9 µM (inactive), the GI50 (HOP-92) was > 100 µM (inactive) and the GI50 (HT-29) was > 100 µM (inactive). For the same molecule, the GI50 (IGROV-1) was > 100 µM (inactive), the GI50 (K562) was > 100 µM (inactive) and the GI50 (KM-20L2) was > 100 µM (inactive). The GI50 (KM12) was > 100 µM (inactive), the GI50 (LOX IMVI) was > 100 µM (inactive) and the GI50 (LXFL 529) was > 100 µM (inactive). The GI50 (M14) was > 100 µM (inactive), the GI50 (M19-MEL) was > 100 µM (inactive) and the GI50 (MOLT-4) was > 100 µM (inactive). For the same molecule, the GI50 (Malme-3M) was > 100 µM (inactive), the GI50 (NCI-H23) was 87.1 µM (inactive) and the GI50 (NCI-H460) was > 100 µM (inactive). For the same molecule, the GI50 (NCI-H522) was > 100 µM (inactive), the GI50 (OVCAR-3) was > 100 µM (inactive) and the GI50 (OVCAR-4) was > 100 µM (inactive). For the same molecule, the GI50 (OVCAR-5) was > 100 µM (inactive), the GI50 (OVCAR-8) was 54.8 µM (inactive) and the GI50 (RPMI-8226) was > 100 µM (inactive). The GI50 (RXF 393) was 22.1 µM (inactive), the GI50 (RXF 631) was > 100 µM (inactive) and the GI50 (SF-268) was 64.3 µM (inactive). The GI50 (SF-539) was 29.1 µM (inactive), the GI50 (SK-MEL-28) was > 100 µM (inactive) and the GI50 (SK-MEL-2) was > 100 µM (inactive). For the same molecule, the GI50 (SK-MEL-5) was > 100 µM (inactive), the GI50 (SK-OV-3) was 86.3 µM (inactive) and the GI50 (SN12C) was 92.7 µM (inactive). The GI50 (SNB-19) was 53.8 µM (inactive), the GI50 (SNB-75) was 18.8 µM (inactive) and the GI50 (SNB-78) was > 100 µM (inactive). The GI50 (SW-620) was > 100 µM (inactive), the GI50 (TK-10) was > 100 µM (inactive) and the GI50 (U-251) was 79.3 µM (inactive). For the same molecule, the GI50 (UACC-257) was > 100 µM (inactive), the GI50 (UACC-62) was > 100 µM (inactive) and the GI50 (UO-31) was 42.6 µM (inactive). For the same molecule, the GI50 (XF498) was > 100 µM (inactive).

With NNC(=O)C(=O)N/N=C(\CCCC(=O)Nc1ccc(Cl)cc1)CC(=O)c1ccc(F)cc1 the GI50 (786-0) was > 100 µM (inactive), the GI50 (A498) was 2.66 µM (inactive) and the GI50 (A549) was > 100 µM (inactive). The GI50 (ACHN) was 17.8 µM (inactive), the GI50 (CCRF-CEM) was > 100 µM (inactive) and the GI50 (COLO 205) was > 100 µM (inactive). The GI50 (DLD-1) was > 100 µM (inactive), the GI50 (DMS-114) was > 100 µM (inactive) and the GI50 (EKVX) was > 100 µM (inactive). The GI50 (HCC 2998) was > 100 µM (inactive), the GI50 (HCT-116) was > 100 µM (inactive) and the GI50 (HL-60) was > 100 µM (inactive). For the same molecule, the GI50 (HOP-18) was 52.8 µM (inactive), the GI50 (HOP-62) was > 100 µM (inactive) and the GI50 (HOP-92) was > 100 µM (inactive). The GI50 (HT-29) was 83.2 µM (inactive), the GI50 (IGROV-1) was > 100 µM (inactive) and the GI50 (KM-20L2) was 7.31 µM (inactive). For the same molecule, the GI50 (KM12) was > 100 µM (inactive), the GI50 (LOX IMVI) was 13.9 µM (inactive) and the GI50 (LXFL 529) was 67.1 µM (inactive). The GI50 (M14) was 51.3 µM (inactive), the GI50 (M19-MEL) was 53.3 µM (inactive) and the GI50 (MOLT-4) was > 100 µM (inactive). The GI50 (Malme-3M) was > 100 µM (inactive), the GI50 (NCI-H226) was > 100 µM (inactive) and the GI50 (NCI-H23) was > 100 µM (inactive). The GI50 (NCI-H460) was > 100 µM (inactive), the GI50 (OVCAR-3) was > 100 µM (inactive) and the GI50 (OVCAR-4) was > 100 µM (inactive). The GI50 (OVCAR-5) was > 100 µM (inactive), the GI50 (OVCAR-8) was > 100 µM (inactive) and the GI50 (RPMI-8226) was 36.1 µM (inactive). The GI50 (RXF 393) was > 100 µM (inactive), the GI50 (RXF 631) was > 100 µM (inactive) and the GI50 (SF-268) was > 100 µM (inactive). For the same molecule, the GI50 (SF-295) was > 100 µM (inactive), the GI50 (SK-MEL-28) was > 100 µM (inactive) and the GI50 (SK-MEL-2) was 15.7 µM (inactive). For the same molecule, the GI50 (SK-MEL-5) was > 100 µM (inactive), the GI50 (SN12C) was > 100 µM (inactive) and the GI50 (SNB-19) was > 100 µM (inactive). The GI50 (SNB-75) was > 100 µM (inactive), the GI50 (SNB-78) was > 100 µM (inactive) and the GI50 (SW-620) was > 100 µM (inactive). For the same molecule, the GI50 (TK-10) was > 100 µM (inactive), the GI50 (U-251) was > 100 µM (inactive) and the GI50 (UACC-257) was > 100 µM (inactive). For the same molecule, the GI50 (UACC-62) was 3.43 µM (inactive), the GI50 (UO-31) was > 100 µM (inactive) and the GI50 (XF498) was > 100 µM (inactive).
